# Results from PubChem BioAssay (NCI).
#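 These data come from cells grown in 96-well plates and exposed to compound for 48 hours at five concentrations. GI50: concentration for 50% inhibition of growth. At the TGI there is no net growth.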
# Key:
# Assay in all cases: growth of human tumour cells (NCI), 48 h
# KM12 colon = system: KM12 colon
# SK-OV-3 ovarian = system: SK-OV-3 ovarian
# OVCAR-5 ovarian = system: OVCAR-5 ovarian
# HL-60(TB) leukemia = system: HL-60(TB) leukemia
# A498 renal = system: A498 renal
# M14 melanoma = system: M14 melanoma
# HCT-116 colon = system: HCT-116 colon
# SN12C renal = system: SN12C renal
# SF-539 CNS = system: SF-539 CNS
# COLO 205 colon = system: COLO 205 colon
# CCRF-CEM leukemia = system: CCRF-CEM leukemia
# UACC-257 melanoma = system: UACC-257 melanoma
# HCC-2998 colon = system: HCC-2998 colon
# HT29 colon = system: HT29 colon
# LOX IMVI melanoma = system: LOX IMVI melanoma
# OVCAR-8 ovarian = system: OVCAR-8 ovarian
# MALME-3M melanoma = system: MALME-3M melanoma
# HOP-62 NSCLC = system: HOP-62 NSCLC
# HS 578T breast = system: HS 578T breast
# MDA-MB-435 = system: MDA-MB-435
# U251 CNS = system: U251 CNS
# SNB-19 CNS = system: SNB-19 CNS
# RPMI-8226 leukemia = system: RPMI-8226 leukemia
# NCI/ADR-RES ovarian = system: NCI/ADR-RES ovarian
# SK-MEL-28 melanoma = system: SK-MEL-28 melanoma
# MDA-MB-468 breast = system: MDA-MB-468 breast
# SW-620 colon = system: SW-620 colon
# SF-268 CNS = system: SF-268 CNS
# EKVX NSCLC = system: EKVX NSCLC
# MCF7 breast = system: MCF7 breast
# IGROV1 ovarian = system: IGROV1 ovarian
# MOLT-4 leukemia = system: MOLT-4 leukemia
# NCI-H23 lung = system: NCI-H23 lung
# PC-3 prostate = system: PC-3 prostate
# NCI-H522 lung = system: NCI-H522 lung
# HCT-15 colon = system: HCT-15 colon
# TK-10 renal = system: TK-10 renal
# NCI-H226 lung = system: NCI-H226 lung
# NCI-H460 lung = system: NCI-H460 lung
# SK-MEL-2 melanoma = system: SK-MEL-2 melanoma
# SF-295 CNS = system: SF-295 CNS
# A549 NSCLC = system: A549 NSCLC
# MDA-MB-231 breast = system: MDA-MB-231 breast
# K-562 leukemia = system: K-562 leukemia
# SK-MEL-5 melanoma = system: SK-MEL-5 melanoma
# UO-31 renal = system: UO-31 renal
# UACC-62 melanoma = system: UACC-62 melanoma
# BT-549 breast = system: BT-549 breast
# OVCAR-3 ovarian = system: OVCAR-3 ovarian
# RXF 393 renal = system: RXF 393 renal
# T-47D breast = system: T-47D breast
# SR leukemia = system: SR leukemia
# CAKI-1 renal = system: CAKI-1 renal
# HOP-92 NSCLC = system: HOP-92 NSCLC
# DU-145 prostate = system: DU-145 prostate
structure (smiles),measurement,setting,value
N/C(=N\c1nc2ccc([N+](=O)[O-])cc2s1)NC(=O)Nc1ccccc1Cl,GI50,KM12 colon,6.95 µM
same,TGI,KM12 colon,> 100 µM
same,GI50,SK-OV-3 ovarian,6.63 µM
same,TGI,SK-OV-3 ovarian,28.2 µM
same,GI50,OVCAR-5 ovarian,4.12 µM
same,TGI,OVCAR-5 ovarian,> 100 µM
same,GI50,HL-60(TB) leukemia,22.4 µM
same,TGI,HL-60(TB) leukemia,> 100 µM
same,GI50,A498 renal,4.53 µM
same,TGI,A498 renal,38 µM
same,GI50,M14 melanoma,13.1 µM
same,TGI,M14 melanoma,38.5 µM
same,GI50,HCT-116 colon,1690 nM
same,TGI,HCT-116 colon,3.46 µM
same,GI50,SN12C renal,4.2 µM
same,TGI,SN12C renal,> 100 µM
same,GI50,SF-539 CNS,4.55 µM
same,TGI,SF-539 CNS,28.2 µM
same,GI50,COLO 205 colon,6.91 µM
same,TGI,COLO 205 colon,76.2 µM
same,GI50,CCRF-CEM leukemia,46.9 µM
same,TGI,CCRF-CEM leukemia,> 100 µM
same,GI50,UACC-257 melanoma,45.5 µM
same,TGI,UACC-257 melanoma,> 100 µM
same,GI50,HCC-2998 colon,61.4 µM
same,TGI,HCC-2998 colon,> 100 µM
same,GI50,HT29 colon,13.9 µM
same,TGI,HT29 colon,> 100 µM
same,GI50,LOX IMVI melanoma,9.3 µM
same,TGI,LOX IMVI melanoma,> 100 µM
same,GI50,OVCAR-8 ovarian,3.9 µM
same,TGI,OVCAR-8 ovarian,> 100 µM
same,GI50,MALME-3M melanoma,4.56 µM
same,TGI,MALME-3M melanoma,> 100 µM
same,GI50,HOP-62 NSCLC,10.8 µM
same,TGI,HOP-62 NSCLC,94.4 µM
same,GI50,HS 578T breast,12.1 µM
same,TGI,HS 578T breast,> 100 µM
same,GI50,MDA-MB-435,2260 nM
same,TGI,MDA-MB-435,7.77 µM
same,GI50,U251 CNS,2300 nM
same,TGI,U251 CNS,6.18 µM
same,GI50,SNB-19 CNS,10.2 µM
same,TGI,SNB-19 CNS,> 100 µM
same,GI50,RPMI-8226 leukemia,72.2 µM
same,TGI,RPMI-8226 leukemia,> 100 µM
same,GI50,NCI/ADR-RES ovarian,3.97 µM
same,TGI,NCI/ADR-RES ovarian,> 100 µM
same,GI50,SK-MEL-28 melanoma,26.2 µM
same,TGI,SK-MEL-28 melanoma,> 100 µM
same,GI50,MDA-MB-468 breast,3.16 µM
same,TGI,MDA-MB-468 breast,13.1 µM
same,GI50,SW-620 colon,5.11 µM
same,TGI,SW-620 colon,> 100 µM
same,GI50,SF-268 CNS,15.1 µM
same,TGI,SF-268 CNS,> 100 µM
same,GI50,EKVX NSCLC,12.4 µM
same,TGI,EKVX NSCLC,> 100 µM
same,GI50,MCF7 breast,7.69 µM
same,TGI,MCF7 breast,> 100 µM
same,GI50,IGROV1 ovarian,9.77 µM
same,TGI,IGROV1 ovarian,> 100 µM
same,GI50,MOLT-4 leukemia,40 µM
same,TGI,MOLT-4 leukemia,> 100 µM
same,GI50,NCI-H23 lung,4.55 µM
same,TGI,NCI-H23 lung,> 100 µM
same,GI50,PC-3 prostate,28.9 µM
same,TGI,PC-3 prostate,> 100 µM
same,GI50,NCI-H522 lung,3.46 µM
same,TGI,NCI-H522 lung,41.5 µM
same,GI50,HCT-15 colon,6.92 µM
same,TGI,HCT-15 colon,> 100 µM
same,GI50,TK-10 renal,3.6 µM
same,TGI,TK-10 renal,> 100 µM
same,GI50,NCI-H226 lung,5 µM
same,TGI,NCI-H226 lung,> 100 µM
same,GI50,NCI-H460 lung,3.1 µM
same,TGI,NCI-H460 lung,8.71 µM
same,GI50,SK-MEL-2 melanoma,23 µM
same,TGI,SK-MEL-2 melanoma,50.2 µM
same,GI50,SF-295 CNS,17.6 µM
same,TGI,SF-295 CNS,90.9 µM
same,GI50,A549 NSCLC,3.09 µM
same,TGI,A549 NSCLC,> 100 µM
same,GI50,MDA-MB-231 breast,2450 nM
same,TGI,MDA-MB-231 breast,6.88 µM
same,GI50,K-562 leukemia,3.56 µM
same,TGI,K-562 leukemia,> 100 µM
same,GI50,SK-MEL-5 melanoma,11.4 µM
same,TGI,SK-MEL-5 melanoma,38.6 µM
same,GI50,UO-31 renal,3.19 µM
same,TGI,UO-31 renal,> 100 µM
same,GI50,UACC-62 melanoma,14.9 µM
same,TGI,UACC-62 melanoma,66.6 µM
same,GI50,BT-549 breast,4.07 µM
same,TGI,BT-549 breast,> 100 µM
same,GI50,OVCAR-3 ovarian,2410 nM
same,TGI,OVCAR-3 ovarian,6.16 µM
same,GI50,RXF 393 renal,3.79 µM
same,TGI,RXF 393 renal,> 100 µM
same,GI50,T-47D breast,2710 nM
same,TGI,T-47D breast,> 100 µM
same,GI50,SR leukemia,2170 nM
same,TGI,SR leukemia,> 100 µM
same,GI50,CAKI-1 renal,3.58 µM
same,TGI,CAKI-1 renal,> 100 µM
same,GI50,HOP-92 NSCLC,2970 nM
same,TGI,HOP-92 NSCLC,17.5 µM
same,GI50,DU-145 prostate,5.63 µM
same,TGI,DU-145 prostate,> 100 µM
